This note sets out measurements from publication PMC12668310, “High‐Throughput Synthesis and Screening of a Cyanimide Library Identifies Selective Inhibitors of ISG15‐Specific Protease mUSP18” (Angewandte Chemie (International Ed. in English), 2025).

This assay addresses T1, mUSP18 (Mus musculus, UniProt Q9WTV6).
T1 construct: (46-368); His-tag (N); made in house
T1 sequence (Q9WTV6 46-368): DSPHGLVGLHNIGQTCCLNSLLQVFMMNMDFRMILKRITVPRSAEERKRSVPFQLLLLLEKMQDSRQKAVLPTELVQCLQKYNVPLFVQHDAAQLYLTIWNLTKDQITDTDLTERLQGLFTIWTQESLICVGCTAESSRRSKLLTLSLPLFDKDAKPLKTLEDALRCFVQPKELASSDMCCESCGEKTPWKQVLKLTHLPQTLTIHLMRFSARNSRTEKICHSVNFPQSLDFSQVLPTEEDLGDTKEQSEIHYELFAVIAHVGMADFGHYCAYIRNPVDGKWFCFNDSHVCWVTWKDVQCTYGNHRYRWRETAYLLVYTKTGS
The experiment in a line: High-throughput screening, ISG15ct-RhoMP, single dose 1.25 µM. Type of assay: biochemical, murine.

The mark [1] stands for this setting: mUSP18 %inhibition, carboxylic acid (CA) building block alone, read-out: %inh CA only.
The mark [2] stands for this setting: mUSP18 %inhibition, carboxylic acid (CA) with coupling reagents DIC/HOBT, read-out: %inh CA + DIC/HOBT.
Setting [3] is: mUSP18 %inhibition, carboxylic acid (CA) building block alone.
Where [4] appears, read: mUSP18 %inhibition, carboxylic acid (CA) with coupling reagents DIC/HOBT.

Read-outs that look alike come from different tables or passages of the source.

Take `CSCCC(NC(C)=O)C(=O)O` (centres unmarked) [CA001]: the inhibition at 1.25 µM was 4.64% under setting [1] and -9.16% under setting [2].
For `CC(=O)NCC(=O)O` [CA002], the inhibition at 1.25 µM is, setting by setting: under setting [1], 0.89%; under setting [2], -10.9%.
As for `CC(C)CC(=O)O` [CA003], the inhibition at 1.25 µM under setting [1] is -0.18% and the inhibition at 1.25 µM under setting [2] was -12.3%.
As to `O=C(O)c1ccccc1I` [CA004], the inhibition at 1.25 µM is, setting by setting: under setting [1], -4.47%; under setting [2], -12.2%.
On the same counts, the results for `CC(C)C(=O)O` [CA005] are -4.83% and -18%.
In the same order, the values of `Cc1cc(OCC(=O)O)ccc1C(C)C` [CA006] are -6.56% and -10.7%.
In the same order, the values of `CCCC(=O)O` [CA007] are -4.83% and -14.7%.
With `CC(C)(C)OC(=O)Nc1ccccc1C(=O)O` [CA009], the inhibition at 1.25 µM by setting is: under setting [1], -1.43%; under setting [2], -19.3%.
In the same order, the values of `Cc1cncc(C(=O)O)c1` [CA010] are -2.59% and -11.3%.
In the same order, the values of `O=C(O)CCN1C(=O)C=CC1=O` [CA011] are 7.63% and -2.16%.
In the case of `O=C(O)Cc1ccc([N+](=O)[O-])cc1` [CA012], the inhibition at 1.25 µM is, setting by setting: under setting [1], -3.85%; under setting [2], -8.78%.
On the same counts, the results for `O=C(O)Cc1ccccc1[N+](=O)[O-]` [CA013] are 7.76% and -7.61%.
On the same counts, the results for `C#CCCC(=O)O` [CA014] are -1.43% and -9.92%.
For the molecule `O=C(O)c1cnccn1` [CA015], the “%inh CA only” value under setting [3] is given as -1.35%. For the same molecule, the “%inh CA + DIC/HOBT” value under setting [4] is recorded as -15.60%.
For `O=C(O)c1ccc(/N=N/c2ccccc2)cc1` [CA016], the inhibition at 1.25 µM under setting [1] is 3.44% and the inhibition at 1.25 µM under setting [2] was -5.83%.
`O=C(O)Cc1ccncc1` [CA017]: the inhibition at 1.25 µM runs as follows: under setting [1], -7.18%; under setting [2], -13%.
On the same counts, the results for `Cn1c(=O)c2c(ncn2CC(=O)O)n(C)c1=O` [CA018] are -2.06% and -10.4%.
In the same order, the values of `O=C(O)CNC(=O)c1ccccc1` [CA019] are -4.39% and -8.67%.
As for `O=C(O)c1ccc(B(O)O)cc1` [CA020], the inhibition at 1.25 µM under setting [1] is -7.88% and the inhibition at 1.25 µM under setting [2] was -9.11%.
For `CC(C)(C)OC(=O)NCC(=O)O` [CA021], the inhibition at 1.25 µM runs as follows: under setting [1], -6.16%; under setting [2], -9.92%.
On the same counts, the results for `CC(C)(C)OC(=O)N[C@@H](Cc1cn(-c2ccc([N+](=O)[O-])cc2[N+](=O)[O-])cn1)C(=O)O` [CA022] are -4.55% and -8.26%.
On the same counts, the results for `O=C(O)CCCCBr` [CA023] are -5.49% and -14.3%.
On the same counts, the results for `O=C(O)C(Br)c1ccccc1` (centres unmarked) [CA024] are -2.41% and -9.9%.
`O=C(O)CCCCCBr` [CA025]: the inhibition at 1.25 µM reads like this: under setting [1], 7.25%; under setting [2], -8.17%.
In the same order, the values of `O=C(O)c1ccccc1CCc1ccccc1` [CA026] are 2.38% and -14.8%.
On the same counts, the results for `O=C(O)c1ccc(CBr)cc1` [CA027] are 0.19% and -11.3%.
As for `Cc1cc(C(=O)O)ccc1Br` [CA028], the inhibition at 1.25 µM by setting is: under setting [1], -3.46%; under setting [2], -11%.
As to `C#CCCCC(=O)O` [CA029], the inhibition at 1.25 µM is -11.6% (read-out: %inh CA + DIC/HOBT) and -3.41% (read-out: %inh CA only).
Turning to `O=C(O)c1nccc2ccccc12` [CA030], the inhibition at 1.25 µM under setting [1] was -2.62% and the inhibition at 1.25 µM under setting [2] was -9.45%.
In the same order, the values of `Cc1c(Br)cccc1C(=O)O` [CA031] are -3.59% and -10.1%.
On to `CC(=O)CCCCC(=O)O` [CA032], for which the inhibition at 1.25 µM reads like this: under setting [1], -5.09%; under setting [2], -11.3%.
Regarding `Cc1ccc(Br)c(C(=O)O)c1` [CA033], the “%inh CA only” value under setting [3] was -2.06%. Also, the “%inh CA + DIC/HOBT” value under setting [4] is listed as -9.49%.
For the molecule `O=C(O)c1sccc1Br` [CA034], the inhibition at 1.25 µM was -2.15% under setting [1] and -14% under setting [2].
In the same order, the values of `O=C(NNc1ccc(C(=O)O)cc1)OCC1c2ccccc2-c2ccccc21` [CA035] are 9.05% and 23.4%.
Consider `O=Cc1cn(CC(=O)O)c2ccccc12` [CA036], for which the inhibition at 1.25 µM by setting is: under setting [1], -2.36%; under setting [2], -8.7%.
In the same order, the values of `O=Cc1ccc(C(=O)O)cc1` [CA037] are 9.56% and -5.24%.
In the same order, the values of `O=C(O)c1cccc2c1-c1ccccc1C2` [CA038] are 6.69% and -7.2%.
On the same counts, the results for `O=Cc1ccc(O)c(C(=O)O)c1` [CA040] are 1.03% and -7.73%.
Regarding `CCCN(CCC)S(=O)(=O)c1ccc(C(=O)O)cc1` [CA041], the inhibition at 1.25 µM by setting is: under setting [1], -0.96%; under setting [2], -9.25%.
For the molecule `CN1C(=O)C[C@@H](C(=O)O)[C@@H]1c1cccnc1` [CA042], under setting [3], the “%inh CA only” value came out at 0.50%. The “%inh CA + DIC/HOBT” value under setting [4] is -12.12%.
Take `O=C(O)CCc1ccccc1Br` [CA043]: the inhibition at 1.25 µM under setting [1] is -0.54% and the inhibition at 1.25 µM under setting [2] is -8.19%.
In the same order, the values of `CC(=O)CCCC(=O)O` [CA044] are -3.03% and -7.52%.
As for `O=Cc1ccccc1C(=O)O` [CA045], the inhibition at 1.25 µM is, setting by setting: under setting [1], -3.41%; under setting [2], -8.39%.
On the same counts, the results for `O=Cc1cccc(C(=O)O)c1` [CA046] are 0.78% and -7.39%.
In the same order, the values of `O=C(O)CN1C(=O)c2ccccc2C1=O` [CA049] are 0.06% and -15.8%.
In the same order, the values of `COc1cc(CC(=O)O)ccc1O` [CA050] are -1.29% and -15.5%.
In the case of `O=C(O)CCc1ccc(O)cc1` [CA051], the inhibition at 1.25 µM under setting [1] was -3.68% and the inhibition at 1.25 µM under setting [2] is -16.6%.
Regarding `CNc1ccc(C(=O)O)cc1` [CA052], the inhibition at 1.25 µM runs as follows: under setting [1], -7.36%; under setting [2], -19.1%.
On to `Cc1ccc(Br)c(C(=O)O)c1` [CA053], for which the “%inh CA only” value under setting [3] is recorded as -8.05%. Also, the “%inh CA + DIC/HOBT” value under setting [4] is given as -15.25%.
With `O=C(O)c1cc([N+](=O)[O-])ccc1Br` [CA054], the inhibition at 1.25 µM under setting [1] was -7.96% and the inhibition at 1.25 µM under setting [2] is -15.9%.
As to `O=C(O)c1c(F)c(F)c(O)c(F)c1F` [CA055], the inhibition at 1.25 µM under setting [1] was -5.28% and the inhibition at 1.25 µM under setting [2] was -14.4%.
Consider `CC(=O)CCC(=O)O` [CA056], for which the inhibition at 1.25 µM is, setting by setting: under setting [1], -7.82%; under setting [2], -15.2%.
In the same order, the values of `O=C(O)c1cccc(B(O)O)c1` [CA057] are -5.9% and -16.2%.
On the same counts, the results for `O=C(O)CCc1cccnc1` [CA058] are -2.47% and -16.4%.
Consider `O=C(O)c1ccc(F)c(F)c1` [CA059], for which the inhibition at 1.25 µM reads like this: under setting [1], -4.22%; under setting [2], -18.1%.
Turning to `CC(C)(C)OC(=O)NC1(C(=O)O)CC1` [CA060], the inhibition at 1.25 µM by setting is: under setting [1], -6.62%; under setting [2], -13.2%.
In the same order, the values of `O=C(NCc1ccc(C(=O)O)cc1)OCC1c2ccccc2-c2ccccc21` [CA061] are 13.4% and -3.66%.
In the same order, the values of `CN(C)c1ccc(C(=O)O)cc1` [CA062] are -0.0145% and 33.7%.
On the same counts, the results for `CC(C)(C)OC(=O)N1C[C@@H](O)C[C@@H]1C(=O)O` [CA063] are -5.22% and -16.4%.
Take `O=C(O)c1ccc(N2CCCC2)cc1F` [CA064]: the inhibition at 1.25 µM under setting [1] was -1.15% and the inhibition at 1.25 µM under setting [2] is -11.3%.
On the same counts, the results for `CC(C)(C)OC(=O)N1CC[C@H](C(=O)O)C1` [CA067] are -11.3% and -14.4%.
On to `O=C(O)c1ccc2cc3ccccc3cc2c1` [CA068], for which the inhibition at 1.25 µM reads like this: under setting [1], 6.72%; under setting [2], 2.22%.
`O=C(O)c1cccc2cc3ccccc3cc12` [CA069]: the inhibition at 1.25 µM is -0.58% under setting [1] and -8.94% under setting [2].
For `N#CCC(=O)O` [CA070], the inhibition at 1.25 µM runs as follows: under setting [1], -5.36%; under setting [2], -14.2%.
In the same order, the values of `CC(=O)Oc1ccccc1C(=O)O` [CA071] are -4.57% and -15.7%.
On the same counts, the results for `O=C(O)CCc1ccccc1` [CA072] are -7.29% and -13.3%.
As for `O=C(O)C(Cl)(Cl)Cl` [CA073], the inhibition at 1.25 µM is, setting by setting: under setting [1], 4.86%; under setting [2], -12.6%.
On the same counts, the results for `O=C(O)CN1CCOCC1` [CA074] are -1.88% and -17.1%.
On the same counts, the results for `O=C1CC(C(=O)O)NC(=O)N1` (centres unmarked) [CA075] are -4.58% and -15.1%.
Turning to `CN1CCN(CC(=O)O)CC1` [CA076], the inhibition at 1.25 µM runs as follows: under setting [1], -7.27%; under setting [2], -15.7%.
